In patent US6274715A, “Tricyclic erythromycin derivatives” (priority 1997, dated 2001):
≈ marks a conversion by molar mass, not a printed value. Where two headings read alike, the source gives them in different places.

Columns and labels:
Type in all cases: cell-based
[1] = test system: STAPHYLOCOCCUS AUREUS A5177; assay: In vitro antibacterial activity, MIC, BHI agar dilution; conditions: S. aureus A5177, unit assumed
[2] = test system: PROVIDENCIA STUARTII CMX 640; conditions: P. stuartii CMX 640; BHI agar; unit assumed
[3] = test system: STREPTOCOCCUS PYOGENES EES61; assay: In vitro antibacterial activity, MIC, BHI agar dilution; conditions: S. pyogenes EES61, unit assumed
[4] = test system: ACINETOBACTER CALCOACETICUS CMX 669; assay: as above; conditions: A. calcoaceticus CMX 669, unit assumed
[5] = test system: PSEUDOMONAS AERUGINOSA K799/61; assay: as above
[6] = test system: STAPHYLOCOCCUS AUREUS ATCC 6538P; assay: as above; conditions: S. aureus ATCC 6538P, 35-37° C., 20 to 24 hours, unit assumed
[7] = test system: PSEUDOMONAS AERUGINOSA 5007; assay: as above
[8] = test system: STAPHYLOCOCCUS AUREUS CMX 553; assay: as above
ESCHERICHIA COLI KNK 437 = conditions: E. coli KNK 437, BHI agar, unit assumed
ESCHERICHIA COLI H560 = assay: In vitro antibacterial activity, MIC, BHI agar dilution; conditions: E. coli H560, unit assumed
[9] = test system: MYCOBACTERIUM SMEGMATIS ATCC 114; assay: as above; conditions: M. smegmatis ATCC 114, unit assumed
[10] = test system: STAPHYLOCOCCUS AUREUS A-5278; assay: as above; conditions: S. aureus A-5278, unit assumed
[11] = test system: STREPTOCOCCUS PYOGENES PIU 2548; assay: as above
[12] = test system: STAPHYLOCOCCUS AUREUS NCTC10649M; assay: as above; conditions: S. aureus NCTC10649M
[13] = test system: PSEUDOMONAS AERUGINOSA DPHD-2862; assay: as above; conditions: P. aeruginosa DPHD-2862, unit assumed
PSEUDOMONAS CEPACIA 296I = assay: as above; conditions: P. cepacia 296I, unit assumed
ESCHERICHIA COLI JUHL = conditions: E. coli JUHL; BHI agar; unit assumed
[14] = test system: STAPHYLOCOCCUS EPIDERMIDIS 3519; conditions: S. epidermidis 3519; BHI agar; unit assumed
[15] = test system: STAPHYLOCOCCUS AUREUS CMX 642A; assay: In vitro antibacterial activity, MIC, BHI agar dilution; conditions: S. aureus CMX 642A
[16] = test system: ENTEROBACTER AEROGENES ATCC 13048; assay: as above
[17] = test system: PSEUDOMONAS AERUGINOSA K799/WT; assay: as above; conditions: P. aeruginosa K799/WT
[18] = test system: PSEUDOMONAS AERUGINOSA BMH10; assay: as above
CANDIDA ALBICANS CCH 442 = assay: as above; conditions: C. albicans CCH 442, unit assumed
[19] = test system: KLEBSIELLA PNEUMONIAE ATCC 8045; assay: as above
ESCHERICHIA COLI DC-2 = assay: as above
[20] = test system: STAPHYLOCOCCUS AUREUS 1775; assay: as above; conditions: S. aureus 1775, unit assumed
M[…] ATCC 9341 = assay: as above
How it was run: (§1)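 BHI agar dilution: twelve plates with successive compound dilutions, inoculated by replicator with 1:100 culture dilutions (1:10 for slow growers such as Micrococcus and Streptococcus), 20 to 24 hours at 35-37° C. MIC was the lowest concentration giving no growth, slight haze or sparse isolated colonies versus drug-free control; erythromycin A as class reference.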

M[…] ATCC 4698 = assay: as above
How it was run: as §1

EN[…] ATCC 8043 = assay: as above; conditions: E. faecium ATCC 8043, unit assumed
How it was run: as §1

STR[…] 508 = assay: as above
How it was run: as §1

ESCHERICHIA COLI SS = assay: as above; conditions: E. coli SS, unit assumed
[21] = test system: PSEUDOMONAS AERUGINOSA DPHD-5263; assay: as above; conditions: P. aeruginosa DPHD-5263, unit assumed
[22] = test system: STREPTOCOCCUS PYOGENES 930; assay: as above; conditions: S. pyogenes 930, unit assumed
[23] = test system: STREPTOCOCCUS BOVIS A-5169; assay: as above; conditions: S. bovis A-5169, listed as Ex 111, unit assumed
[24] = P. aeruginosa K799/61, unit assumed
[25] = P. aeruginosa 5007, unit assumed
[26] = S. aureus CMX 553, unit assumed
[27] = S. pyogenes PIU 2548, unit assumed
[28] = E. aerogenes ATCC 13048, unit assumed
[29] = P. aeruginosa BMH10, unit assumed
[30] = K. pneumoniae ATCC 8045, unit assumed
[31] = M. luteus ATCC 9341, unit assumed
[32] = M. luteus ATCC 4698, unit assumed

| SMILES | MIC [1] | MIC [2] | MIC [3] | MIC [4] | MIC [5, 24] | MIC [6] | MIC [7, 25] | MIC [8, 26] | MIC (ESCHERICHIA COLI KNK 437) | MIC (ESCHERICHIA COLI H560) | MIC [9] | MIC [10] | MIC [13] | MIC (PSEUDOMONAS CEPACIA 296I) | MIC (ESCHERICHIA COLI JUHL) | MIC (CANDIDA ALBICANS CCH 442) | MIC [20] | MIC (EN[…] ATCC 8043) | MIC (ESCHERICHIA COLI SS) | MIC [21] | further results |
| --- | --- | --- | --- | --- | --- | --- | --- | --- | --- | --- | --- | --- | --- | --- | --- | --- | --- | --- | --- | --- | --- |
| CC[C@H]1OC(=O)[C@H](C)C(=O)[C@H](C)[C@@H](O[C@@H]2O[C@H](C)C[C@H](N(C)C)[C@H]2O)[C@](C)(OC)C[C@@H](C)C2=N[C@H](COCc3ccc(OC)cc3)CN3C(=O)O[C@@]1(C)[C@H]3[C@H]2C [Example 90] | 0.39 µg/mL (≈ 0.495 µM) | > 100 µg/mL | ≤ 0.005 µg/mL | 100 µg/mL (≈ 127 µM) | 6.2 µg/mL (≈ 7.87 µM) | 0.39 µg/mL (≈ 0.495 µM) | > 100 µg/mL | 0.39 µg/mL (≈ 0.495 µM) | > 100 µg/mL | 50 µg/mL (≈ 63.5 µM) | 0.78 µg/mL (≈ 0.99 µM) | > 100 µg/mL | > 100 µg/mL | > 100 µg/mL | > 100 µg/mL | > 100 µg/mL | > 100 µg/mL | 0.02 µg/mL (≈ 0.0254 µM) | 0.78 µg/mL (≈ 0.99 µM) | > 100 µg/mL | MIC [11, 27]: 0.78 µg/mL (≈ 0.99 µM); MIC ([12]; unit assumed): 0.78 µg/mL (≈ 0.99 µM); MIC [14]: 0.39 µg/mL (≈ 0.495 µM); MIC ([15]; unit assumed): 0.39 µg/mL (≈ 0.495 µM); MIC [16, 28]: > 100 µg/mL; MIC ([17]; unit assumed): > 100 µg/mL; MIC [18, 29]: > 100 µg/mL; MIC [19, 30]: > 100 µg/mL; MIC (ESCHERICHIA COLI DC-2; E. coli DC-2, unit assumed): > 100 µg/mL; MIC (M[…] ATCC 9341; [31]): 0.1 µg/mL (≈ 0.127 µM); MIC (M[…] ATCC 4698; [32]): 0.78 µg/mL (≈ 0.99 µM); MIC (STR[…] 508; S. agalactiae CMX 508, unit assumed): 0.02 µg/mL (≈ 0.0254 µM) |
| CC[C@H]1OC(=O)[C@H](C)C(=O)[C@H](C)[C@@H](O[C@@H]2O[C@H](C)C[C@H](N(C)C)[C@H]2O)[C@](C)(OC)C[C@@H](C)C2=NC3CN(CCCc4ccccc4)CC3N3C(=O)O[C@@]1(C)[C@H]3[C@H]2C (stereo partly drawn) [Example 111] | 0.2 µg/mL (≈ 0.251 µM) | > 100 µg/mL | 0.02 µg/mL (≈ 0.0251 µM) | > 100 µg/mL | – | 0.2 µg/mL (≈ 0.251 µM) | – | – | – | 50 µg/mL (≈ 62.7 µM) | – | > 100 µg/mL | > 100 µg/mL | 25 µg/mL (≈ 31.4 µM) | 100 µg/mL (≈ 125 µM) | 0.39 µg/mL (≈ 0.489 µM) | > 100 µg/mL | 0.1 µg/mL (≈ 0.125 µM) | 0.39 µg/mL (≈ 0.489 µM) | > 100 µg/mL | MIC ([5]; P. aeruginosa K799/61, listed as Ex 111, unit assumed): 50 µg/mL (≈ 62.7 µM); MIC ([7]; P. aeruginosa 5007, listed as Ex 111, unit assumed): 100 µg/mL (≈ 125 µM); MIC ([8]; S. aureus CMX 553, listed as Ex 111, unit assumed): 0.2 µg/mL (≈ 0.251 µM); MIC (ESCHERICHIA COLI KNK 437; listed as Ex 111): > 100 µg/mL; MIC [22]: 50 µg/mL (≈ 62.7 µM); MIC [23]: 0.01 µg/mL (≈ 0.0125 µM); MIC ([11]; S. pyogenes PIU 2548, listed as Ex 111, unit assumed): 0.39 µg/mL (≈ 0.489 µM); MIC ([12]; listed as Ex 111, unit assumed): 0.2 µg/mL (≈ 0.251 µM); MIC ([15]; listed as Ex 111, unit assumed): 0.39 µg/mL (≈ 0.489 µM); MIC ([16]; E. aerogenes ATCC 13048, listed as Ex 111, unit assumed): > 100 µg/mL; MIC ([17]; listed as Ex 111, unit assumed): 1.56 µg/mL (≈ 1.96 µM); MIC ([18]; P. aeruginosa BMH10, listed as Ex 111, unit assumed): > 100 µg/mL; MIC ([19]; K. pneumoniae ATCC 8045, listed as Ex 111, unit assumed): > 100 µg/mL; MIC (ESCHERICHIA COLI DC-2; E. coli DC-2, listed as Ex 111, unit assumed): 100 µg/mL (≈ 125 µM); MIC (M[…] ATCC 9341; M. luteus ATCC 9341, listed as Ex 111, unit assumed): 0.05 µg/mL (≈ 0.0627 µM); MIC (M[…] ATCC 4698; M. luteus ATCC 4698, listed as Ex 111, unit assumed): 0.39 µg/mL (≈ 0.489 µM); MIC (STR[…] 508; S. agalactiae CMX 508, listed as Ex 111, unit assumed): 0.05 µg/mL (≈ 0.0627 µM) |
| CCC1OC(=O)C(C)C(=O)C(C)C(OC2OC(C)CC(N(C)C)C2O)C(C)(OC)CC(C)C2=NCC(CSc3ccccc3)(CN(C)Cc3ccccc3)N3C(=O)OC1(C)C3C2C (stereo not drawn) [Example 133] | 0.78 µg/mL (≈ 0.873 µM) | > 100 µg/mL | 0.02 µg/mL (≈ 0.0224 µM) | > 100 µg/mL | 12.5 µg/mL (≈ 14 µM) | 0.78 µg/mL (≈ 0.873 µM) | > 100 µg/mL | 1.56 µg/mL (≈ 1.75 µM) | > 100 µg/mL | > 100 µg/mL | 0.78 µg/mL (≈ 0.873 µM) | 25 µg/mL (≈ 28 µM) | > 100 µg/mL | > 100 µg/mL | > 100 µg/mL | 50 µg/mL (≈ 56 µM) | 25 µg/mL (≈ 28 µM) | 0.1 µg/mL (≈ 0.112 µM) | 12.5 µg/mL (≈ 14 µM) | > 100 µg/mL | MIC [22]: 6.2 µg/mL (≈ 6.94 µM); MIC [11, 27]: 1.56 µg/mL (≈ 1.75 µM); MIC ([12]; unit assumed): 1.56 µg/mL (≈ 1.75 µM); MIC [14]: 1.56 µg/mL (≈ 1.75 µM); MIC ([15]; unit assumed): 1.56 µg/mL (≈ 1.75 µM); MIC [16, 28]: > 100 µg/mL; MIC ([17]; unit assumed): > 100 µg/mL; MIC [18, 29]: > 100 µg/mL; MIC [19, 30]: > 100 µg/mL; MIC (ESCHERICHIA COLI DC-2; E. coli DC-2, unit assumed): > 100 µg/mL; MIC (M[…] ATCC 9341; [31]): 0.2 µg/mL (≈ 0.224 µM); MIC (M[…] ATCC 4698; [32]): 1.56 µg/mL (≈ 1.75 µM) |
